# Reference: patent publication US20250204541A1, “GAS PHASE TREATMENT OF PRODUCE” (priority 2022, published 2025)
# Columns and labels:
# Assay type in all cases: in vivo
# [1] = system: avocados
# Description: Example 11. The ripening characteristics of avocados exposed to AITC vapor was analyzed. Treatment groups consisted of avocados that were: exposed to the vapor of 125 μL of AITC in a Petri dish for 30 min and 18 hours; exposed to the vapor of 500 μL of AITC for 30 minutes and 18 hours; untreated and kept 18 hours in a bin; and treated with a coating agent. Two sets of the preceding test groups were studied. One set was treated when cold along with coated fruit (i.e., fruit treated with a coating agent (95 wt % glyceryl monostearate and 5 wt % sodium stearate) and another set was treated when warm (one day out of cold storage). Daily measurements were made of respiration and firmness (using a durometer). At the start of the test, the avocados were placed in cold storage. After one day, the cold treated avocados were treated with AITC directly after removal from cold storage. The coated group was treated at this time. The warm treated avocados were allowed to warm to room temperature. On the second day, measurements were begun on the cold treated avocados and AITC treatments began on the warm treated samples. On the third day, measurements began on the warm treated groups. […]
# Example 23: The ripening characteristics of avocados exposed to AITC vapor, a coating agent (95 wt % glyceryl monostearate and 5 wt % sodium stearate), and AITC plus the coating agent was analyzed. […]
# [2] = system: avocados; assay: Durometer shore (ripening/firmness) of treated avocados; conditions: for average increase of durometer shore over the uninfected and untreated avocados: Example 22
# Description: Example 9. The antifungal activity of a range of AITC and carvacrol vapor exposure times was tested against Cg in avocados. To measure the effect of the various treatments on ripening, durometer shore was taken after 7 days of incubation at ambient temperature and high humidity. All samples were wounded by removing the stem and infected by dispensing 1000 Cg spores suspended in 10 μL of water in the wound. The test groups consisted of avocados that were: infected and left untreated on the benchtop; infected and left untreated under a fume hood; exposed to the vapor of 3 mL of AITC in a Petri dish for 24 hours, 48 hours, and 72 hours; and exposed to the vapor of 3 mL of carvacrol in a Petri dish for 72 hours. FIG. 11 quantifies the infection results. […] All exposure times to AITC vapor reduced the incidence of Cg mold compared to the untreated samples. A 24 hour AITC exposure reduced the incidence of Cg mold by 90%. A 48 hour AITC exposure reduced the incidence of Cg mold by 97%. A 72 hour AITC exposure reduced the incidence of Cg mold by 83%.
# Example 10. The antifungal activity of a range of AITC vapor exposure times were tested against Cg in avocados. To measure the effect of the various treatments on ripening, durometer shore was taken after 6 days of incubation at ambient temperature and high humidity. All samples were wounded by removing the stem and infected by dispensing 1000 Cg spores suspended in 10 μL of water in each wound. The test groups consisted of avocados that were: infected and left untreated on the benchtop; infected and left untreated in a fume hood; exposed to the vapor of 3 mL of AITC in a Petri dish for 24 hours, 48 hours, and 72 hours. FIG. 13 quantifies the infection results. […] All exposure times to AITC vapor reduced the incidence of Cg mold compared to the untreated samples.
# Example 21. The antifungal activity of avocados exposed to AITC vapor and prochloraz was tested against Cg in avocados. To measure the effect of the various treatments on ripening, durometer shore was taken after 5 days of incubation at ambient temperature (about 20° C. to about 25° C.) and high humidity (about 88% relative humidity to about 93% relative humidity). All samples were wounded by removing the stem and infected by dispensing 1000 Cg spores suspended in 10 μL of water in the wound. Exposure to vapor was done by placing the avocados in an airtight container, dispensing AITC onto Whatman filter paper discs, suspending the discs in front of a battery-powered fan, closing the container and incubating the avocados for 30 minutes. After vapor exposure, the avocados were left at ambient temperature, high humidity, and assessed for Cg mold on day 5. Treatment groups consisted of avocados that were: exposed for 30 minutes to the vapor of 125 μL of AITC disposed on a filter paper disc; dipped in a solution of 0.1 g/L of prochloraz and placed to dry on a rack in front of a fan for 30 min; infected and left untreated; and uninfected and untreated. […] To prepare the 0.1 g/L of prochloraz, 10 mg of prochloraz was mixed with 10 mL of ethanol and 90 mL of water. […] A 24 hour AITC exposure reduced the incidence of Cg mold by 90%. […] The mean shore value for the untreated avocados was 28.8 (standard deviation (SD)=10.8). The mean shore value for the infected avocados was 47.3 (SD=11.8). The mean shore value of the positive control, prochloraz treated avocados was 44.3 (SD=14.7). The mean shore value of the AITC treated avocados was 61.1 (SD=10.5).
# Durometer Shore Measurement: A Fruit Hardness Tester—HPE III Fff w/Sphere Ø 5.0 mm Test Anvil is used for the measurements. The Operating Procedure is as follows: • 1) At room temperature and 1 atm pressure, switch on the measuring device and press the hull or sleeve against the specimen so that the contact surface of the pressure plate rests on the fruit. […]
# [3] = system: Botrytis cinerea (Bc); assay: Antifungal activity of AITC vapor against Botrytis cinerea in strawberries; conditions: Example 17; suspended strawberries; coating agent 50 g/L dip; AITC 125 μL 30 minutes; by day 5
smiles,measurement,setting,value
"C=CCN=C=S [AITC, allyl isothiocyanate]",quality and defects of treated avocados,"[1]; Example 23, avocados, vapor of 500 μL, 11 days of incubation",higher quality and had fewer defects than the untreated avocados and the avocados treated with the coating agent alone
same,effect on avocado peel and firmness,[1]; in vivo,darkening and thickening of the avocado peel and a prolonged feeling a firmness
same,average increase of durometer shore over the untreated avocados,"[2]; Example 9, Cg-infected avocados, all AITC treatments (3 mL, 24, 48, 72 hours), after 7 days, P value<0.0001",20.3 shore
same,average increase of durometer shore over the infected avocados,"[2]; Example 10, Cg-infected avocados, all AITC treatments (3 mL, 24, 48, 72 hours), after 6 days, P value<0.005",15.4 shore
same,higher durometer shore than the untreated avocados,"[2]; Example 21, Cg-infected avocados, 125 μL, 30 minutes, after 5 days",more than 30 shore
same,mean shore value,"[2]; Example 21, Cg-infected avocados, after 5 days, AITC 125 μL vapor 30 minutes, prochloraz 0.1 g/L dip",61.1 (SD=10.5) shore
same,average increase of durometer shore over the uninfected and untreated avocados,"[2]; Cg-infected avocados, 250 μL, 30 minutes, after 5 days, P value=0.0016",about 10 shore
same,average increase of durometer shore over the uninfected and untreated avocados,"[2]; Cg-infected avocados, 500 μL, 30 minutes, after 5 days, P value<0.0001",about 28.5 shore
same,average increase of durometer shore over the untreated avocados,"[2]; Example 23, avocados, after 11 days, coating agent 40 g/L dip, AITC vapor of 500 μL, P value<0.0001",22.5 shore
same,reduction in incidence of mold versus the untreated test group,[3],over 80%
